The values below are quoted from earlier work in patent US6022703A, “Expression of DNA sequences derived from nocardioform microorganisms” (Genzyme Corporation, priority 1993, dated 2000).

The data set relates to Nocardioform cholesterol oxidase. To be noted: at 25°.

Consider `CC(C)CCC[C@@H](C)[C@H]1CC[C@H]2[C@@H]3CC=C4C[C@@H](O)CC[C@]4(C)[C@H]3CC[C@]12C` [cholesterol], for which the Michaelis-Menten constant (Km) – broadly, the substrate concentration at which the rate is half of its maximum – is 14 µM.
